Earlier results, collected in patent US20160310758A1, “SYSTEMS AND METHODS FOR PHOTOACTIVATING A PHOTOSENSITIZER APPLIED TO AN EYE” (Avedro, Inc., priority 2015, published 2016).

Key:
bacteria = details: D2O by itself, without photosensitizer; Skladnev et al. 1996
[1] = non-ionic permeability enhancer in riboflavin formulations

Molecule | killing of bacteria (bacteria) | HLB number [1]
[2H]O[2H] [D2O, deuterated water] | does not kill bacteria | 
Polyoxyethylene (9) lauryl ether [Polidocanol] |  | approximately 13.6
